pIC50: −log10 of the molar value.
target: T1, COX-2 (Homo sapiens, UniProt P35354); assay: COX-2 inhibitor screening kit, in vitro enzyme activity test (fluorescence); format: biochemical; conditions: inhibition of COX-2 enzyme activity, probit regression
T1 construct: purchased Beyotime Biotechnology (Shanghai, China)
T1 sequence (P35354 18-604): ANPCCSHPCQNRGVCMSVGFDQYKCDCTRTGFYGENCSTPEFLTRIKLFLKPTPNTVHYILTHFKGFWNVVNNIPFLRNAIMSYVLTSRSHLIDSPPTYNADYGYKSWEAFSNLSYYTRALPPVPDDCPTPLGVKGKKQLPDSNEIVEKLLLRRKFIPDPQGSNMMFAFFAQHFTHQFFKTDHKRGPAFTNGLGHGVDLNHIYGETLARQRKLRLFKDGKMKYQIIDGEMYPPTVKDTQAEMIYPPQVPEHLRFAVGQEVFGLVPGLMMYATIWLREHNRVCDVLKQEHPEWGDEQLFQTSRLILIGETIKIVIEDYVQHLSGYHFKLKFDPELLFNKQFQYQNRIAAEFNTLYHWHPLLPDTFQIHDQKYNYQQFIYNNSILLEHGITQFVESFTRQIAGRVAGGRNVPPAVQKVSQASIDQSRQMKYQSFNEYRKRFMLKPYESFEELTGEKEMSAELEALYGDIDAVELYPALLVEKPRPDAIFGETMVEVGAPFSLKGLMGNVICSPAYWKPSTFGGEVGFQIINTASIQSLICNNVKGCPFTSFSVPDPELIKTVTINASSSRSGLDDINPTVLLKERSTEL
Method: The COX-2 inhibitory activities of four monomer compounds and Shiyifang Vinum were detected with the COX-2 inhibitor screening kit. The blank control, 100% enzyme activity control, positive inhibition control, and sample wells were prepared, with three repeat wells in each group.

Structure (SMILES)	pIC50
O=c1c(O)c(-c2ccc(O)cc2)oc2cc(O)cc(O)c12 [Kaempferol, kaempferol]	4.51
O=c1cc(-c2ccc(O)c(O)c2)oc2cc(O)cc(O)c12 [Luteolin, luteolin]	4.97
O=c1c(O)c(-c2ccc(O)c(O)c2)oc2cc(O)cc(O)c12 [Quercetin, quercetin]	5.40

Reference: PMC7817263, “Analysis of the Anti-Inflammatory and Analgesic Mechanism of Shiyifang Vinum Based on Network Pharmacology” (Evidence-based Complementary and Alternative Medicine : eCAM, 2021)
